Values of other authors, collected in publication PMC12525602, “Identification of Selective α-Glucosidase Inhibitors via Virtual Screening with Machine Learning” (Molecules, 2025).

tested on: α-glucosidase; details: activity label of the modeling dataset (Table S5), α-glucosidase; 1 = active, 0 = inactive; cited from earlier work

activity, 0:
CC1CCN(c2ccc(/C=N/Nc3nc(-c4ccc(C#N)cc4)cs3)cc2)CC1 [compound 22]
N#Cc1ccc2[nH]c(-c3nnc(Nc4ccc(Cl)cc4)s3)cc2c1 [compound 23]
N#Cc1c(-c2ccc(Cl)cc2)cc(-c2ccco2)c(C#N)c1N [compound 24]
N#Cc1c(-c2ccncc2)cc(-c2cccnc2)c(C#N)c1N [compound 25]
Cc1ccc(-c2cc(-c3ccc([N+](=O)[O-])cc3)c(C#N)c(N)c2C#N)cc1 [compound 26]
CCCCCCCCCCCCCCCCCC(N)=O [compound 27]
N#Cc1c(-c2ccncc2)cc(-c2ccccn2)c(C#N)c1N [compound 28]
Fc1ccc(Cn2cc(CSc3nnc(COc4cccc5cccnc45)o3)nn2)cc1F [compound 29]
O=C(c1ccccc1)c1ccc2nc(-c3ccccc3O)[nH]c2c1 [compound 30]
O=c1c(O[C@@H]2O[C@H](CO)[C@@H](O)[C@H](O)[C@H]2O)c(-c2ccc(O)c(O)c2)oc2cc(O)cc(O)c12 [compound 31]
N#Cc1c(-c2ccc([N+](=O)[O-])cc2)cc(-c2cccc([N+](=O)[O-])c2)c(C#N)c1N [compound 32]
Brc1ccc(Cn2cc(CSc3nnc(COc4cccc5cccnc45)o3)nn2)cc1 [compound 33]
O=c1c(OC2OC(CO)C(O)C(O)C2O)c(-c2cc(O)c(O)c(O)c2)oc2cc(O)cc(O)c12 (stereo not drawn) [compound 34]
Cc1ccc(-c2cc(-c3ccncc3)c(C#N)c(N)c2C#N)cc1 [compound 35]
N#Cc1c(-c2ccncc2)cc(-c2cccc(Cl)c2)c(C#N)c1N [compound 36]
N#Cc1c(-c2cccnc2)cc(-c2ccsc2)c(C#N)c1N [compound 37]
O=c1c(O[C@@H]2O[C@H](CO)[C@H](O)[C@H](O)[C@H]2O)c(-c2ccc(O)c(O)c2)oc2cc(O)cc(O)c12 [compound 38]
N[C@@H](Cc1ccccc1)C(=O)O [compound 39]
COc1ccc(Nc2nnc(-c3cc4cc(C#N)ccc4[nH]3)s2)cc1 [compound 40]
O=c1c(O[C@@H]2O[C@H](CO)[C@@H](O)[C@H](O)[C@H]2O)c(-c2ccc(O)cc2)oc2cc(O)cc(O)c12 [compound 41]
N#Cc1c(-c2cccnc2)cc(-c2ccccn2)c(C#N)c1N [compound 42]
COc1cccc(Nc2nnc(-c3cc4cc(C#N)ccc4[nH]3)s2)c1 [compound 43]

same assay, conditions: activity label of the modeling dataset, Table S5 (1 = active, 0 = inactive); cited from earlier work

activity, 0:
CCCCCCCCCCCCN [compound 44]
C[C@@H]1O[C@@H](Oc2c(-c3ccc(O)c(O)c3)oc3cc(O)cc(O)c3c2=O)[C@H](O)[C@H](O)[C@H]1O [compound 45]
N#Cc1c(-c2ccc(Cl)cc2)cc(-c2cccc(Br)c2)c(C#N)c1N [compound 46]
Fc1cccc(CSc2nnc(COc3cccc4cccnc34)o2)c1 [compound 47]
N#Cc1c(-c2ccc([N+](=O)[O-])cc2)cc(-c2cccc(Br)c2)c(C#N)c1N [compound 48]
Clc1ccc(-n2cc(CSc3nnc(COc4cccc5cccnc45)o3)nn2)c(Cl)c1 [compound 49]
N#Cc1c(-c2cccc(Cl)c2)cc(-c2cccc([N+](=O)[O-])c2)c(C#N)c1N [compound 50]
CCCCCCSc1nnc(COc2cccc3cccnc23)o1 [compound 51]
